For this experiment, the system named is LPS-induced TNFα in monocytes. In words: Monocytes assay: LPS-triggered TNFα (ELISA). In kind it is cell-based, human. To be noted: Homo sapiens, Monocyte, LPS-triggered TNFα inhibition. Put shortly: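 TNFα secretion was triggered with 200 ng/mL LPS for 4 h in human blood CD14+ monocytes after 1 h compound pretreatment at 37 °C, with 0.2% final DMSO. Supernatants were analysed by streptavidin-HRP/luminol ELISA, and percentage inhibition at each concentration was derived relative to control wells.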

Each structure is given as a SMILES string.

For orientation: EC50 means the midpoint of the concentration-response curve. Low readings indicate greater potency, high ones weaker potency. Compound `COc1cc(-c2cnn3cc(C4COCCO4)ccc23)cc(OC(F)F)c1C(=O)NC1CC1` (stereo not shown) [Cpd 232, N-cyclopropyl-2-(difluoromethoxy)-4-[6-(1,4-dioxan-2-yl)pyrazolo[1,5-a]pyridin-3-yl]-6-methoxy-benzamide] gave an EC50 of 100 to 1000 nM. Consider `CCC(C)(C#N)c1ccn2c(-c3cc(OC)c(C(=O)NC4CC4)c(OC(F)F)c3)cnc2c1` (stereo not shown) [Cpd 27, 4-[7-(1-cyano-1-methyl-propyl)imidazo[1,2-a]pyridin-3-yl]-N-cyclopropyl-2-(difluoromethoxy)-6-methoxy-benzamide], for which the 50% effective concentration (EC50) was in the range of 100 to 1000 nM.

The compound `COc1cc(-c2cnc3cc(C(F)(F)CO)ccn23)cc(OC(F)F)c1C(=O)NC1CC1` [Cpd 136, N-cyclopropyl-4-[7-(1,1-difluoro-2-hydroxy-ethyl)imidazo[1,2-a]pyridin-3-yl]-2-(difluoromethoxy)-6-methoxy-benzamide] returned an EC50 of 100 to 1000 nM. `COc1cc(-c2cnc3cc(C4(C#N)CCOCC4)ccn23)cc(OC(F)F)c1C(=O)NC1CC1` [Cpd 116, 4-[7-(4-cyanotetrahydropyran-4-yl)imidazo[1,2-a]pyridin-3-yl]-N-cyclopropyl-2-(difluoromethoxy)-6-methoxy-benzamide]: the concentration giving a half-maximal response (EC50) lay within 100 to 1000 nM.

On to `COc1cc(-c2cnn3cc(C4COC4)ccc23)cc(OC(F)F)c1C(=O)NC1CC1` [Cpd 216, N-cyclopropyl-2-(difluoromethoxy)-6-methoxy-4-[6-(oxetan-3-yl)pyrazolo[1,5-a]pyridin-3-yl]benzamide], for which the concentration for a half-maximal effect (EC50) was 100 to 1000 nM. Regarding `COc1cc(-c2cnc3cc(C4(C#N)COC4)ccn23)cc(OC(F)F)c1C(=O)N[C@@H]1C[C@@H]1F` [Cpd 130, 4-[7-(3-cyanooxetan-3-yl)imidazo[1,2-a]pyridin-3-yl]-2-(difluoromethoxy)-N-[(1R,2S)-2-fluorocyclopropyl]-6-methoxy-benzamide], the EC50 was in the range of 100 to 1000 nM. As to `COc1cc(-c2cnn3cc(C(C)(C)N)ccc23)cc(OC(F)F)c1C(=O)N[C@@H]1C[C@@H]1F` [Cpd 256, 4-[6-(1-amino-1-methyl-ethyl)pyrazolo[1,5-a]pyridin-3-yl]-2-(difluoromethoxy)-N-[(1R,2S)-2-fluorocyclopropyl]-6-methoxy-benzamide], the EC50 was 100 to 1000 nM. Turning to `COc1cc(-c2cnc3cc(C4COC4)ccn23)cc(OC(F)F)c1C(=O)NC1CC1` [Cpd 174, N-cyclopropyl-2-(difluoromethoxy)-6-methoxy-4-[7-(oxetan-3-yl)imidazo[1,2-a]pyridin-3-yl]benzamide], the concentration giving a half-maximal response (EC50) lay in the range of 100 to 1000 nM. `COc1cc(-c2cnc3cc(C(C)(C)C#N)ccn23)cc(OC(F)F)c1C(=O)NCC(F)F` [Cpd 70, 4-[7-(1-cyano-1-methyl-ethyl)imidazo[1,2-a]pyridin-3-yl]-N-(2,2-difluoroethyl)-2-(difluoromethoxy)-6-methoxy-benzamide]: the EC50 was in the range of 100 to 1000 nM.

The compound `COc1cc(-c2cnc3cc(C(C)(C)CN4CCOCC4)ccn23)cc(OC(F)F)c1C(=O)NC1CC1` [Cpd 160, N-cyclopropyl-2-(difluoromethoxy)-4-[7-(1,1-dimethyl-2-morpholino-ethyl)imidazo[1,2-a]pyridin-3-yl]-6-methoxy-benzamide] returned an EC50 of 100 to 1000 nM. As to `COc1cc(-c2cnc3cc(C4CCCN4C)ccn23)cc(OC(F)F)c1C(=O)NC1CC1` (stereo not shown) [Cpd 171, N-cyclopropyl-2-(difluoromethoxy)-6-methoxy-4-[7-(1-methylpyrrolidin-2-yl)imidazo[1,2-a]pyridin-3-yl]benzamide], the EC50 fell in the range of 1000 to 5000 nM. For `COc1cc(-c2cnc3cc(C(C)(C#N)CO)ccn23)cc(OC(F)F)c1C(=O)NC1CC1` (stereo not shown) [Cpd 176, 4-[7-(1-cyano-2-hydroxy-1-methyl-ethyl)imidazo[1,2-a]pyridin-3-yl]-N-cyclopropyl-2-(difluoromethoxy)-6-methoxy-benzamide], the EC50 fell in the range of 100 to 1000 nM.

In turn, `COc1cc(-c2cnn3cc(C4(N)CCC4)ccc23)cc(OC(F)F)c1C(=O)N[C@@H]1C[C@@H]1F` [Cpd 261, 4-[6-(1-aminocyclobutyl)pyrazolo[1,5-a]pyridin-3-yl]-2-(difluoromethoxy)-N-[(1R,2S)-2-fluorocyclopropyl]-6-methoxy-benzamide] registered a concentration for a half-maximal effect (EC50) of 100 to 1000 nM. The compound `COc1cc(-c2cnc3cc(C4COC4)ccn23)cc(OC(F)F)c1C(=O)N[C@@H]1C[C@@H]1F` [Cpd 206, 2-(difluoromethoxy)-N-[(1R,2S)-2-fluorocyclopropyl]-6-methoxy-4-[7-(oxetan-3-yl)imidazo[1,2-a]pyridin-3-yl]benzamide] gave a concentration giving a half-maximal response (EC50) of 100 to 1000 nM. The compound `COc1cc(-c2cnc3cc(C4(F)COC4)ccn23)cc(OC(F)F)c1C(=O)N[C@@H]1C[C@@H]1F` [Cpd 224, 2-(difluoromethoxy)-N-[(1R,2S)-2-fluorocyclopropyl]-4-[7-(3-fluorooxetan-3-yl)imidazo[1,2-a]pyridin-3-yl]-6-methoxy-benzamide] displayed a concentration giving a half-maximal response (EC50) of 100 to 1000 nM. For the compound `COc1cc(-c2cnc3cc(C4CCOCC4)c(F)cn23)cc(OC(F)F)c1C(=O)NC1CC1` [Cpd 166, N-cyclopropyl-2-(difluoromethoxy)-4-(6-fluoro-7-tetrahydropyran-4-yl-imidazo[1,2-a]pyridin-3-yl)-6-methoxy-benzamide], the concentration for a half-maximal effect (EC50) was 100 to 1000 nM. For `COc1cc(-c2cnc3cc(C(C)(C)C#N)ccn23)cc(OC(F)F)c1C(=O)N[C@@H]1C[C@@H]1F` [Cpd 79, 4-[7-(1-cyano-1-methyl-ethyl)imidazo[1,2-a]pyridin-3-yl]-2-(difluoromethoxy)-N-[(1R,2S)-2-fluorocyclopropyl]-6-methoxy-benzamide], the EC50 was 0.1 to 100 nM. In turn, `COc1cc(-c2cnn3cc(C(C)(C)C#N)cnc23)cc(OC(F)F)c1C(=O)N[C@@H]1C[C@@H]1F` [Cpd 231, 4-[6-(1-cyano-1-methyl-ethyl)pyrazolo[1,5-a]pyrimidin-3-yl]-2-(difluoromethoxy)-N-[(1R,2S)-2-fluorocyclopropyl]-6-methoxy-benzamide] gave an EC50 of 100 to 1000 nM. `COc1cc(-c2cnn3cc(C4(C(N)=O)CCC4)ccc23)cc(OC(F)F)c1C(=O)N[C@@H]1C[C@@H]1F` [Cpd 254, 4-[6-(1-carbamoylcyclobutyl)pyrazolo[1,5-a]pyridin-3-yl]-2-(difluoromethoxy)-N-[(1R,2S)-2-fluorocyclopropyl]-6-methoxy-benzamide] had an EC50 of 100 to 1000 nM.

For the compound `COc1cc(-c2cnc3cc(C(C)(C)C#N)ccn23)cc(OC(F)F)c1C(=O)NCC1CC1` [Cpd 39, 4-[7-(1-cyano-1-methyl-ethyl)imidazo[1,2-a]pyridin-3-yl]-N-(cyclopropylmethyl)-2-(difluoromethoxy)-6-methoxy-benzamide], the EC50 fell in the range of 100 to 1000 nM.

`COc1cc(-c2cnc3cc(C4COCCN4C)ccn23)cc(OC(F)F)c1C(=O)NC1CC1` (stereo not shown) [Cpd 193, N-cyclopropyl-2-(difluoromethoxy)-6-methoxy-4-[7-(4-methylmorpholin-3-yl)imidazo[1,2-a]pyridin-3-yl]benzamide] displayed a concentration giving a half-maximal response (EC50) of 100 to 1000 nM. As for `COc1cc(-c2cnn3cc(C4(O)CCC4)ccc23)cc(OC(F)F)c1C(=O)N[C@@H]1C[C@@H]1F` [Cpd 266, 2-(difluoromethoxy)-N-[(1R,2S)-2-fluorocyclopropyl]-4-[6-(1-hydroxycyclobutyl)pyrazolo[1,5-a]pyridin-3-yl]-6-methoxy-benzamide], the EC50 lay in the range of 100 to 1000 nM.

As to `COc1cc(-c2cnn3cc(C(C)(C)C#N)ccc23)cc(OC)c1C(=O)N[C@@H]1C[C@@H]1F` [Cpd 245, 4-[6-(1-cyano-1-methyl-ethyl)pyrazolo[1,5-a]pyridin-3-yl]-N-[(1R,2S)-2-fluorocyclopropyl]-2,6-dimethoxy-benzamide], the EC50 lay in the range of 100 to 1000 nM. With `COc1cc(-c2cnc3cc(C(C)(C)C#N)ccn23)cc(OC)c1C(=O)NC1CC1` [Cpd 28, 4-[7-(1-cyano-1-methyl-ethyl)imidazo[1,2-a]pyridin-3-yl]-N-cyclopropyl-2,6-dimethoxy-benzamide], the half-maximal effective concentration (EC50) was in the range of 100 to 1000 nM. The compound `COc1cc(-c2cnc3cc(C4(F)COC4)ccn23)cc(OC(F)F)c1C(=O)NC1CC1` [Cpd 207, N-cyclopropyl-2-(difluoromethoxy)-4-[7-(3-fluorooxetan-3-yl)imidazo[1,2-a]pyridin-3-yl]-6-methoxy-benzamide] yielded an EC50 of 100 to 1000 nM. Take `COc1cc(-c2cnc3cc(C(C)(C)C#N)ccn23)cc(OC(F)F)c1C(=O)N1CC(F)(F)C1` [Cpd 69, 2-[3-[4-(3,3-difluoroazetidine-1-carbonyl)-3-(difluoromethoxy)-5-methoxy-phenyl]imidazo[1,2-a]pyridin-7-yl]-2-methyl-propanenitrile]: the half-maximal effective concentration (EC50) lay in the range of 100 to 1000 nM. As for `COc1cc(-c2cnc3cc(C(C)(C)N)ccn23)cc(OC(F)F)c1C(=O)NC1CC1` [Cpd 106, 4-[7-(1-amino-1-methyl-ethyl)imidazo[1,2-a]pyridin-3-yl]-N-cyclopropyl-2-(difluoromethoxy)-6-methoxy-benzamide], the figure is 100 to 1000 nM. `COc1cc(-c2cnn3cc(C(C)(C)CN4CCOCC4)ccc23)cc(OC(F)F)c1C(=O)N[C@@H]1C[C@@H]1F` [Cpd 269, 2-(difluoromethoxy)-4-[6-(1,1-dimethyl-2-morpholino-ethyl)pyrazolo[1,5-a]pyridin-3-yl]-N-[(1R,2S)-2-fluorocyclopropyl]-6-methoxy-benzamide]: the EC50 lay within 100 to 1000 nM. In turn, `COC(=O)C1(c2ccn3c(-c4cc(OC)c(C(=O)NC5CC5)c(OC(F)F)c4)cnc3c2)CC1` [Cpd 113, methyl 1-[3-[4-(cyclopropylcarbamoyl)-3-(difluoromethoxy)-5-methoxy-phenyl]imidazo[1,2-a]pyridin-7-yl]cyclopropanecarboxylate] came in with an EC50 of 100 to 1000 nM. In turn, `COc1cc(-c2cnc3cc(C(O)CC#N)ccn23)cc(OC(F)F)c1C(=O)NC1CC1` (stereo not shown) [Cpd 175, 4-[7-(2-cyano-1-hydroxy-ethyl)imidazo[1,2-a]pyridin-3-yl]-N-cyclopropyl-2-(difluoromethoxy)-6-methoxy-benzamide] returned an EC50 of 1000 to 5000 nM.

As for `CCOC(C)(C)c1ccn2c(-c3cc(OC)c(C(=O)NC4CC4)c(OC(F)F)c3)cnc2c1` [Cpd 128, N-cyclopropyl-2-(difluoromethoxy)-4-[7-(1-ethoxy-1-methyl-ethyl)imidazo[1,2-a]pyridin-3-yl]-6-methoxy-benzamide], the EC50 lay within 100 to 1000 nM.

The values above are taken from patent publication US12391679B2, “Benzamide-substituted bicyclic imidazo- and pyrazolo-fused -pyridine, -pyrimide, and -pyridazine compounds for treatment of inflammatory diseases” (ONCO3R Therapeutics BV, priority 2019, dated 2025).
